Source: PubChem BioAssay (NCI)
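How tested: cells in 96-well plates exposed to compound for 48 hours at five concentrations. The concentration for full growth arrest is given as TGI.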

Tests used:
Experiment in all cases: inhibition of tumour cell growth, NCI panel, 48 h
SN12C renal = tested on: SN12C renal
HS 578T breast = tested on: HS 578T breast
HL-60(TB) leukemia = tested on: HL-60(TB) leukemia
NCI/ADR-RES ovarian = tested on: NCI/ADR-RES ovarian
MDA-MB-435 = tested on: MDA-MB-435
SF-268 CNS = tested on: SF-268 CNS
OVCAR-5 ovarian = tested on: OVCAR-5 ovarian
SR leukemia = tested on: SR leukemia
CCRF-CEM leukemia = tested on: CCRF-CEM leukemia
EKVX NSCLC = tested on: EKVX NSCLC
DMS 273 small cell lung = tested on: DMS 273 small cell lung
DMS 114 small cell lung = tested on: DMS 114 small cell lung
KM20L2 colon = tested on: KM20L2 colon
HT29 colon = tested on: HT29 colon
COLO 205 colon = tested on: COLO 205 colon
DLD-1 colon = tested on: DLD-1 colon
SNB-78 CNS = tested on: SNB-78 CNS
SNB-19 CNS = tested on: SNB-19 CNS
BT-549 breast = tested on: BT-549 breast
A498 renal = tested on: A498 renal

Structure (SMILES)	TGI (SN12C renal) [µM]	TGI (HS 578T breast) [µM]	TGI (HL-60(TB) leukemia) [µM]	TGI (NCI/ADR-RES ovarian) [µM]	TGI (MDA-MB-435) [µM]	TGI (SF-268 CNS) [µM]	TGI (OVCAR-5 ovarian) [µM]	TGI (SR leukemia) [µM]	TGI (CCRF-CEM leukemia) [µM]	TGI (EKVX NSCLC) [µM]	TGI (DMS 273 small cell lung) [µM]	TGI (DMS 114 small cell lung) [µM]	TGI (KM20L2 colon) [µM]	TGI (HT29 colon) [µM]	TGI (COLO 205 colon) [µM]	TGI (DLD-1 colon) [µM]	TGI (SNB-78 CNS) [µM]	TGI (SNB-19 CNS) [µM]	TGI (BT-549 breast) [µM]	TGI (A498 renal) [µM]
CCOC(=O)/C=C/CC(C)(C)COC(C)=O	> 10	> 10	> 10	> 10	> 10	> 10	> 10	> 10	> 10											
COc1ccc(C2C(C(=O)O)=C(CO)Oc3cc4c(cc32)OCO4)cc1 (configuration not stated)	> 100									> 100	> 100	> 100	> 100	> 100	> 100	> 100	> 100	> 100		
CCC(C)C(=O)OC1C(=O)OC2CC3C(C)=CC(=O)C(O)C3(C)C3C4(O)OCC23C1C(C)C4O (configuration not stated)		0.275		6.47	0.0723	0.124			0.0393						0.757				0.094	3.3
